Results published in patent US8449794B2, “Non-resonant two-photon absorption recording material and non-resonant two-photon absorption compound” (FUJIFILM Corporation, priority 2010, dated 2013).
Where two headings read alike, the source gives them in different places.

How the values were obtained:
[1] = Two-photon absorption cross-sectional area by Z scanning method; format: physicochemical; conditions: measurement wavelength 550 nm; chloroform solution 1×10^−3
Procedure: Measurement of a two-photon absorption cross-sectional area of the synthesized compound is carried out by Z scanning method described in Mansoor Sheik-Baha et al., IEEE, Journal of Quantum Electronics, 1990, 26, 760. Z scanning method is a widely used method as the measuring method of a non-linear optical constant. In the vicinity of the focus of converged laser beam, a measuring sample is moved along the beam and the change of the quantity of transmitting light is recorded. Since the power density of incident light changes depending upon the position of a sample, the quantity of transmitting light attenuates in the vicinity of the focus in the case where non-linear absorption is present. A two-photon absorption cross-sectional area is computed by fitting the change of the quantity of transmitting light to the theoretical curve predictable from the intensity of incident light, the size of converging spot of light, the thickness of a sample and the concentration of a sample. As the light sources for the measurement of a two-photon absorption cross-sectional area, a Ti-sapphire pulse laser (pulse duration: 100 fs, repetition: 80 MHz, average output: 1 W, peak power: 100 kW) obtained by combining a […] amplifier and light parametric amplifier is used. […]

[2] = Evaluation of solubility of two-photon absorption compound; format: physicochemical; conditions: coating solvent dichloromethane
Procedure: The solubility of the compounds of the invention D-11, D-41 and D-405 and comparative compound R-2 in dichloromethane and 2-butanone is evaluated.

[3] = measurement wavelength vicinity of 525 nm; value in document; cited from earlier work

Row | Compound | Two-Photon Absorption Cross-Sectional Area [1] [GM] | Solubility (in words) [2] | Two-Photon Absorption Cross-Sectional Area [3] [GM]
1 | N#Cc1ccc(-c2ccc(-c3ccc(-c4ccc(C(=O)c5ccccc5)cc4)cc3)cc2)cc1 [Compound R-2] | 200 | small in solubility | 
2 | CCCCCCC(CCCC)Oc1ccc(-c2ccc(-c3ccc(-c4ccc(OC(CCCC)CCCCCC)cc4)cc3)cc2)cc1 (stereo not drawn) [Compound R-1] |  |  | 15
